The source of these data is PubChem BioAssay (NCI).

Values joined by “and” are separate entries in the source; they are usually repeats but may differ in a detail not shown here. Identical values can stand only once.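 Exposure lasted 48 hours, with cells grown in 96-well plates and compounds tested at five concentrations. At the GI50, growth is halved. TGI: concentration producing complete growth inhibition.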

Among the test systems are ACHN renal; SNB-19 CNS; M14 melanoma; HCT-15 colon; COLO 205 colon; NCI-H23 lung; HOP-92 NSCLC.
Common to all, as to experiment: NCI tumour cell line growth inhibition, 48 h

Consider `COc1ccc(/C=C(\C#N)n2nnc3c(F)cccc32)cc1`, for which the GI50 with ACHN renal is 0.689 µM; with SNB-19 CNS it was 0.412 µM; in the assay with M14 melanoma, 0.245 µM; in the assay on HCT-15 colon, 0.133 µM; in the assay on COLO 205 colon, 0.38 µM; in the assay with NCI-H23 lung it was 0.508 µM. Further, the GI50 in the assay with HOP-92 NSCLC is 0.293 µM. The TGI is greater than 51.6 µM in the assay with ACHN renal; 18.2 µM in the assay on SNB-19 CNS; 1.57 µM in the assay on M14 melanoma; greater than 100 µM with HCT-15 colon; greater than 100 µM in the assay with COLO 205 colon; 12.5 µM in the assay with NCI-H23 lung. In addition, the TGI in the assay with HOP-92 NSCLC is 42.9 µM.
As for `C=CCN1CC(=O)N2[C@@H](Cc3ccc(O)cc3F)C(=O)N(Cc3cccc(N4CC(N5CCN(CC)CC5)C4)n3)C[C@@H]2N1C(=O)NCc1ccccc1`, the GI50 is 0.393 µM in the assay on ACHN renal; 0.0324 µM in the assay on SNB-19 CNS; 0.0445 µM in the assay with M14 melanoma; 0.449 µM in the assay on HCT-15 colon; 0.028 µM in the assay on COLO 205 colon; 0.0756 µM with NCI-H23 lung. Also, the GI50 with HOP-92 NSCLC is 0.0217 µM. For the same compound, the TGI was greater than 100 µM in the assay with ACHN renal; greater than 100 µM in the assay with SNB-19 CNS; 19.6 µM in the assay with M14 melanoma; greater than 20.9 µM with HCT-15 colon; 0.262 µM with COLO 205 colon; greater than 100 µM in the assay on NCI-H23 lung. In addition, the TGI in the assay with HOP-92 NSCLC amounted to 0.0829 µM.
As to `Cc1cc(N=Nc2ccccc2C)ccc1N`, the GI50 is 14.7 µM in the assay on ACHN renal; 16.4 µM in the assay on SNB-19 CNS; 16.1 µM in the assay on M14 melanoma; 16.5 µM in the assay on NCI-H23 lung; 7.41 µM with HOP-92 NSCLC. Further, the TGI with ACHN renal is 28.7 µM and 45.8 µM; in the assay with SNB-19 CNS, > 100 µM and 56 µM; with M14 melanoma, 24.9 µM and 38.7 µM; in the assay on HCT-15 colon it was 25.2 µM and 33.4 µM; in the assay on COLO 205 colon it was 33.6 µM and 32.4 µM; in the assay on NCI-H23 lung, 14.7 µM and 42.3 µM. Moreover, the TGI with HOP-92 NSCLC is 25.1 µM and 26.8 µM.
With `COC(=O)c1cncc(/C=C/c2c(C)cc(O)cc2C)c1`, the GI50 with ACHN renal is greater than 21.5 µM; in the assay on SNB-19 CNS, greater than 21.9 µM; in the assay with M14 melanoma it was 8.69 µM; in the assay with HCT-15 colon it was 11.1 µM; with COLO 205 colon, greater than 22.4 µM; in the assay on NCI-H23 lung it was 10.5 µM. Besides, the GI50 with HOP-92 NSCLC was 4.97 µM. The TGI with ACHN renal was greater than 25 µM; in the assay on SNB-19 CNS it was greater than 25 µM; in the assay on M14 melanoma it was 24.6 µM; in the assay on HCT-15 colon, greater than 25 µM; in the assay on COLO 205 colon, greater than 25 µM; in the assay on NCI-H23 lung, greater than 25 µM. The TGI in the assay on HOP-92 NSCLC is greater than 22.1 µM.
As to `COc1ncnc(NS(=O)(=O)c2ccc(N=C3C(=O)N(CN4CCN(c5c(F)cc6c(=O)c(C(=O)O)cn(C7CC7)c6c5OC)CC4C)c4ccc(Br)cc43)cc2)c1OC` (configuration not stated), the GI50 in the assay on ACHN renal was 22.5 µM; in the assay on SNB-19 CNS, 19.4 µM; with M14 melanoma, 15.3 µM; with HCT-15 colon, 4.73 µM; in the assay on COLO 205 colon it was 10.8 µM; in the assay with NCI-H23 lung it was 8.79 µM. Further, the GI50 with HOP-92 NSCLC was 0.176 µM. The TGI in the assay on ACHN renal was greater than 50 µM; in the assay with SNB-19 CNS, greater than 50 µM; with M14 melanoma, greater than 50 µM; in the assay with HCT-15 colon, greater than 50 µM; with COLO 205 colon it was 39.9 µM; in the assay on NCI-H23 lung, 27 µM. This compound came in with a TGI in the assay with HOP-92 NSCLC of 0.477 µM.
On to `COC(=O)[C@H]1CCCN1C(=O)[C@H]1CCCN1C(=O)[C@@H](Cc1c[nH]c2ccccc12)NC(=S)Nc1cc(C(F)(F)F)cc(C(F)(F)F)c1`, for which the GI50 is 2.51 µM in the assay on ACHN renal; 2.14 µM in the assay on SNB-19 CNS; 2.04 µM in the assay on M14 melanoma; 1.66 µM in the assay on HCT-15 colon; 1.83 µM in the assay on COLO 205 colon; 2.07 µM in the assay with NCI-H23 lung. For the same compound, in the assay on HOP-92 NSCLC, the GI50 was 1.2 µM. The TGI in the assay with ACHN renal stood at 7.78 µM; in the assay on SNB-19 CNS, 5.72 µM; with M14 melanoma it was 4.19 µM; in the assay on HCT-15 colon, 3.13 µM; with COLO 205 colon, 3.49 µM; in the assay with NCI-H23 lung, 4.68 µM. Besides, in the assay with HOP-92 NSCLC, the TGI turned out to be 3.22 µM.
In the case of `O=C1OC(C(O)CO)C(O)=C1O` (configuration not stated), the GI50 with ACHN renal is 1540 µM and 1610 µM; in the assay on SNB-19 CNS, greater than 10000 µM; in the assay on M14 melanoma it was 1890 µM and 2290 µM; in the assay with HCT-15 colon it was 1860 µM; in the assay with COLO 205 colon it was 2030 µM and 1830 µM; in the assay on NCI-H23 lung, 2920 µM and > 4420 µM. Further, the GI50 in the assay on HOP-92 NSCLC was 2060 µM and > 10000 µM. Besides, the TGI was 2940 µM and 3060 µM with ACHN renal; greater than 10000 µM in the assay with SNB-19 CNS; 3570 µM and 4760 µM in the assay with M14 melanoma; 3450 µM and 3870 µM in the assay on HCT-15 colon; 3750 µM and 3420 µM in the assay with COLO 205 colon; greater than 10000 µM in the assay with NCI-H23 lung. For the same compound, the TGI in the assay on HOP-92 NSCLC was 4480 µM and > 10000 µM.
Turning to `CCN(CC)CCCCCCNc1cc(OC)cc2cccnc12`, the GI50 in the assay with ACHN renal was 1.84 µM; in the assay with SNB-19 CNS, 8.17 µM; in the assay with M14 melanoma, 1.93 µM; in the assay with HCT-15 colon, 1.9 µM; with COLO 205 colon, 1.94 µM; in the assay on NCI-H23 lung, 13.3 µM. For the same compound, the GI50 in the assay with HOP-92 NSCLC is 12.5 µM. In addition, the TGI was found to be 3.56 µM in the assay with ACHN renal; 30.8 µM with SNB-19 CNS; 3.74 µM in the assay with M14 melanoma; 3.78 µM with HCT-15 colon; 3.85 µM in the assay with COLO 205 colon; 30.3 µM in the assay with NCI-H23 lung. Also, in the assay on HOP-92 NSCLC, the TGI amounted to 27.6 µM.
On to `COc1ccc(-c2nc(/C=C3\SC(=NCc4ccccc4)NC3=O)c3ccccn23)cc1`, for which the GI50 with ACHN renal is 1.34 µM; in the assay with SNB-19 CNS, 2.71 µM; with M14 melanoma, 1.12 µM; in the assay on HCT-15 colon, 1.47 µM; in the assay on COLO 205 colon, 2.75 µM; in the assay with NCI-H23 lung, 1.37 µM. The GI50 in the assay on HOP-92 NSCLC was 0.853 µM. For the same compound, the TGI in the assay on ACHN renal was 1.94 µM; in the assay on SNB-19 CNS, 9.68 µM; with M14 melanoma it was 2.42 µM; with HCT-15 colon, 2.18 µM; in the assay with COLO 205 colon, 7.66 µM; in the assay with NCI-H23 lung it was 3.51 µM. Further, the TGI in the assay on HOP-92 NSCLC was 3.42 µM.
Turning to `N#CC1=C(/N=C/c2ccccc2)Oc2c(ccc3ccccc23)C1c1ccccc1` (configuration not stated), the GI50 is 0.591 µM with ACHN renal; 0.702 µM with SNB-19 CNS; 0.484 µM in the assay on M14 melanoma; 0.494 µM in the assay with HCT-15 colon; 0.594 µM in the assay with COLO 205 colon; 0.715 µM with NCI-H23 lung. Besides, the GI50 with HOP-92 NSCLC was 0.299 µM. In addition, the TGI in the assay with ACHN renal is greater than 100 µM; with SNB-19 CNS it was greater than 100 µM; in the assay with M14 melanoma, greater than 100 µM; with HCT-15 colon, greater than 100 µM; in the assay on NCI-H23 lung, greater than 100 µM; with HOP-92 NSCLC it was greater than 23.6 µM.
